Source: publication PMC4372254, “Unlocking the Diversity of Alkaloids in Catharanthus roseus: Nuclear Localization Suggests Metabolic Channeling in Secondary Metabolism” (Chemistry & Biology, 2015)

Tests used:
[1] = molecular target: T1, THAS (tetrahydroalstonine synthase) (Catharanthus roseus, UniProt A0A0F6SD02); assay: isothermal titration calorimetry; type: binding
T1 construct: His-tagged, vector pOPINF, expressed in E. coli Rosetta 2 pLysS, HisTrap purified
T1 sequence (A0A0F6SD02 1-356): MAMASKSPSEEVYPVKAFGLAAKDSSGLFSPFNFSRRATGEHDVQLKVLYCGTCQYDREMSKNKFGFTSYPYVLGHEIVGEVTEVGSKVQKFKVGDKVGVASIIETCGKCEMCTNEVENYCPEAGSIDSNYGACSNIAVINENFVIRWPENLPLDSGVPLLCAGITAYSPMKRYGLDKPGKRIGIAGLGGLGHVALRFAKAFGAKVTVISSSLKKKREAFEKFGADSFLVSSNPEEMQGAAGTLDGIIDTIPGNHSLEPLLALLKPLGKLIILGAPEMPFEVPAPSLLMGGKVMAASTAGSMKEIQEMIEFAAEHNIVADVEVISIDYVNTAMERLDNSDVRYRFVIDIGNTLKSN

[2] = molecular target: T2, SGD (strictosidine glucosidase) (Catharanthus roseus, UniProt Q9M7N7); assay: in situ deglycosylation, […] min incubation; type: biochemical; settings: strictosidine aglycone formed
T2 construct: recombinant, purified as THAS, expression system of Yerkes et al. 2008

SMILES | Kd [1] | in situ deglycosylation, 10 min incubation [2]
NC(=O)C1=CN([C@@H]2O[C@H](COP(=O)(O)OP(=O)(O)OC[C@H]3O[C@@H](n4cnc5c(N)ncnc54)[C@H](OP(=O)(O)O)[C@@H]3O)[C@@H](O)[C@H]2O)C=CC1 [NADPH] | 1.5 ± 0.1 µM | –
C=C[C@H]1[C@H](O[C@@H]2O[C@H](CO)[C@@H](O)[C@H](O)[C@H]2O)OC=C(C(=O)OC)[C@H]1C[C@@H]1NCCc2c1[nH]c1ccccc21 [strictosidine] | – | strictosidine was completely converted to the aglycone
